Data: patent US20190350955A1, “METHODS AND PHARMACEUTICAL COMPOSITIONS FOR THE TREATMENT OF CARDIOMYOPATHIES” (INSERM (Institut National de la Sante et de la Recherche …, priority 2016, published 2019)

Key:
control mice = assay: Echocardiography of control (Sf/Sf) mice on NR diet; assay type: in vivo, mouse; details: D45 to D47
Excerpt: Transgenic mice. All experiments with animals conformed to the Directive 2010/63/EU of the European Parliament and were approved by the ethics committee Charles Darvin #5 (agreement 00369.01). SRF^HKO mice bear the tamoxifen-inducible α-MHC-MerCrMer transgene and the Siffloxed allele (Sf/Sf) as described previously (Parlakian et al. (2005). Temporally controlled onset of dilated cardiomyopathy through disruption of the SRF gene in adult heart. Journal 112, 2930-2939; Tritsch et al. (2013). An SRF/miR-1 axis regulates NCX1 and Annexin A5 protein levels in the normal and failing heart. Journal 98, 372-380). Transgenic mice have been bred for more than 20 generations in C57BL/6N background. […]
Echocardiography was performed on lightly anesthetized mice given isoflurane (induction with 2% isoflurane 100% O2. and maintained with 0.5% isoflurance 100% O2). Non-invasive measurements of left ventricular dimensions were evaluated using Doppler echocardiography (Vivid 7 Dimension/Vivid7 PRO; GE Medical Systems) with a probe ultrasound frequency range of 9-14 MHz. […] LV fractional shortening (FS) was calculated using the formula: (LVEDD−LVESD)/LVEDD×100. LV myocardial volume (LVV), LV end-diastolic volume (EDV), and end-systolic volume (ESV) were calculated using a half-ellipsoid model of the LV. From these volumes, LV ejection fraction (EF) was calculated using, the formula: (EDV−ESV)/EDV×100. […]

TAC mice = assay: Myocardial NAD+ levels after TAC; assay type: in vivo, mouse; details: 6 weeks after TAC, NR treated TAC group vs non treated CD TAC group
Description: Transverse aorta constriction was performed in 2 month-old male mice under anesthesia (ketamine 100 mg/kg, xylazin 16 mg/kg). Skin was opened above the sternum and the upper part of the sternum was cut on a length of 2 mm allowing the mouse to breath without the need of a ventilator. A surgical suture was passed under the aortic cross between the right brachiocephalic (innominate) artery and left common carotid artery and a 27-½ gauge blunt needle was placed parallel to the wall of the aortic cross as a calibrator. Two loose knots were tied around the aortic cross and the needle. The first knot was quickly tied against the needle, followed by the second and the needle was promptly removed in order to produce a constriction of 0.4 mm in diameter. In sham, mice the procedure was the same except for the constriction of the aorta. NR treatment was started 2 days after the TAC or SHAM surgery.
Tissue frozen powder was resuspended in 75% ethanol, 25% HEPES 10 mM pH 7.1, buffer (20 μl/mg of tissue). Extracts were warmed 5 min at 80° C., then directly cold on ice and centrifuge 5 min at 16 000 g. Tissues extracts were normalized on the weight of tissue used for extraction. […] After adjustment of dilution factors, NADH levels were calculated by substracting the NAD^+ concentration to the non-heated ethanolic extract values: NADH=NADt (non heated)−NAD^+ (heated). […]

## NC(=O)c1ccc[n+]([C@@H]2O[C@H](CO)[C@@H](O)[C@H]2O)c1 [NR, nicotinamide riboside]
Control mice
  H/R ratio: slightly increased
TAC mice
  myocardial NAD+ levels: significantly higher
